For series [1] the following is noted: background art statement; cited from earlier work.
Series [2] can be described thus: Solubility test (JP XIII dissolution test, paddle method). The series is classed as physicochemical. As to conditions: 900 ml distilled water, paddle 50 rpm; compared with crystal types A, B, C and mixture A+C of FR173657 hydrate (FIG. 6). The procedure: A solubility test was performed in conformity with the Japanese Pharmacopoeia(JP) XIII dissolution test, paddle method. As the test solution, 900 ml of distilled water was used. The paddle speed was set to 50 rpm. The vitreous form of FR173657 ([…]) was added to the test solution and 10 ml aliquots of the test solution were taken as samples in each measurement. Each sample was filtered through a 0.45 μm filter and analyzed by high-performance liquid chromatography.
As a control, crystal type A, crystal type B, crystal type C and a mixture of crystal types A and C of FR173657 hydrate were used.

The nature of series [3]: Stability test of the vitreous form milled mechanically. In kind it is physicochemical.
The mark [4] stands for this setting: 25° C. Relative humidity: 60%, 3 Months.
Setting [5] is: 30° C. Relative humidity: 75%, 3 Months.
Setting [6] is: 40° C. Relative humidity: 75%, 3 Months.

With `CC(=O)Nc1ccc(/C=C/C(=O)NCC(=O)N(C)c2ccc(Cl)c(COc3cccc4ccc(C)nc34)c2Cl)cn1` [amorphous form, 8-[3-[N-[(E)-3-(6-acetamidopyridin-3-yl)acryloylglycyl]-N-methylamino]-2,6-dichlorobenzyloxy]-2-methylquinoline], the Solid stability entry in series [1] was “poor”.

Regarding `CC(=O)Nc1ccc(/C=C/C(=O)NCC(=O)N(C)c2ccc(Cl)c(COc3cccc4ccc(C)nc34)c2Cl)cn1` [vitreous form of FR173657, 8-[3-[N-[(E)-3-(6-acetamidopyridin-3-yl)acryloylglycyl]-N-methylamino]-2,6-dichlorobenzyloxy]-2-methylquinoline], the Solubility result in series [2] is listed as “higher solubility”. In addition, the Appearance result was “Pale” in series [3] (setting [4]); “Pale” in series [3] (setting [5]); “Pale” in series [3] (setting [6]); “Pale” in series [3] (40° C., 3 Months); “Pale” in series [3] (50° C., 3 Months); “Pale” in series [3] (Initial). For the same molecule, the “Form DSC” value in series [3] (setting [4]) was “Vitreous”; in series [3] (setting [5]), “Vitreous”; in series [3] (setting [6]) it was “Vitreous”; in series [3] (40° C., 3 Months), “Vitreous”; in series [3] (50° C., 3 Months), “Vitreous”; in series [3] (Initial), “Vitreous”. Moreover, the “Form Powder X-ray” value is on record as “Vitreous” in series [3] (setting [4]); “Vitreous” in series [3] (setting [5]); “Vitreous” in series [3] (setting [6]); “Vitreous” in series [3] (40° C., 3 Months); “Vitreous” in series [3] (50° C., 3 Months); “Vitreous” in series [3] (Initial). Also, the “Residual (%)” value in series [3] (setting [4]) came out at 102.1%; in series [3] (setting [5]), 102.1%; in series [3] (setting [6]) it was 101.2%; in series [3] (40° C., 3 Months), 100.8%; in series [3] (50° C., 3 Months), 101.0%; in series [3] (Initial), 100.0%. In addition, in series [3] (under heat, in moisture, through physical treatment, long-term storage), the “Stability (crystallization / decomposition)” value was “neither crystallizes nor decomposes at all”.

These data come from patent US7094899B2, “Vitreous form of known bradykinin antagonist” (Astellas Pharma Inc., priority 1998, dated 2006).
